In series [1] the test system is SMAD transcriptional activity. The experiment in a line: SMAD transcriptional activity (luciferase) with GEF-1/C constituent oligopeptides, B16 cells. The note with it: oligopeptide 2.5 nmol with peptide transporter Wr-T, 48 hours. The format is cell-based, mouse. The method, then:
Each GEF-1/C constituent oligopeptide (2.5 nmol) and a peptide transporter Wr-T (0.2 nmol) were mixed and then diluted to 0.1 ml with PBS, and mixed with a DNA solution for SMAD transcriptional activity testing (0.1 ml). To the respective cells (B16 cells and COLO205 cells) in a 48-well plate, which had been washed with Opti-MEM I medium, the mixture thus prepared was added in a volume of 0.2 ml per well. After 4 hours, 20% FBS/Opti-MEM I medium (0.2 ml) was added to each well. After 48 hours, the respective cells were lysed and the luciferase activity in each lysate was measured.

In series [2] the test system is B16 cells. Put plainly: growth in soft agar medium, B16 cells. Conditions: oligopeptide introduced with Wr-T. Type of series: cell-based, mouse. How it is done: (§1) A cell culture solution (1.5 ml), in which agarose (low gelling temperature agarose) was dissolved at a concentration of 0.5% (w/v), was added to a 35 mm dish, cooled and gelled. Onto the resulting gel, a 0.33% agarose/cell culture medium containing 5.0×10^3 cells was added in a volume of 1.5 ml. After gelling, the cells were cultured in a CO2 incubator for 2 weeks. A 0.005% (w/v) aqueous solution of crystal violet (0.5 ml) was added onto the gel and incubated overnight to stain the cells. The 35 mm dish was scanned with a scanner, and colony counts were measured from the resulting image using image analysis software.
(§2) The GEF-1/C constituent oligopeptides were studied for their inhibitory effect on the growth of various tumor cells (B16 cells, HeLa cells, COLO205 cells, KATO III cells, A549 cells and PT45 cells) in soft agar medium.
(§3) In the same manner as shown in (2) above, the GEF-1/C constituent oligopeptides were introduced into various tumor cells and these cells were seeded together with a 0.33% soft agar medium.

The test system of series [3] is HeLa cells. The experiment in a line: growth in soft agar medium, HeLa cells. Type of series: cell-based, human. The note with it: oligopeptide introduced with Wr-T. How it is done:
as §1, §2, §3

In series [4] the test system is COLO205 cells. Put plainly: growth in soft agar medium, COLO205 cells. Type of series: cell-based, human. The note with it: oligopeptide introduced with Wr-T. The method, then: as §1, §2, §3
For series [5], the system named is B16 cells. The experiment in a line: in vivo anti-tumor growth effect of oligopeptides, B16 cells in nude mice. Conditions: cells incubated with oligopeptide 25 nmol and Wr-T for 2 hours, then inoculated subcutaneously into nude mice. Further details: species or system mouse. How it is done: Each GEF-1/C constituent oligopeptide (25 nmol) and a peptide transporter Wr-T (2 nmol) were mixed and then diluted to 0.1 ml with PBS, to which each cell suspension prepared at 5.0×10^6 cells/ml Opti-MEM I medium was then added in a volume of 0.1 ml and mixed. This cell mixture was incubated in a CO2 incubator at 37° C. for 2 hours and then inoculated subcutaneously into nude mice. The long and short axes of tumor were measured at intervals of a week to calculate the tumor volume (=long axis×(short axis)^2×π/6). After the mice were finally euthanized with carbon dioxide gas, tumor in each mouse was photographed. Subsequently, the tumor was excised and measured for its wet weight.

Series [6] has as its system KOP2.16 cells. The experiment in a line: tube formation inhibition test with GEF-1 siRNAs. The format is cell-based, mouse. Conditions: siRNA 40 nmol with lipofectamine 2000; transfected KOP2.16 cells seeded on Matrigel. The method, then: To confirm the in vitro anti-angiogenic effect of the GEF-1-siRNAs, a tube formation inhibition test was conducted using vascular endothelial KOP2.16 cells.
Each siRNA (40 nmol) and lipofectamine 2000 (10 μl) were mixed and then diluted to 1.0 ml with Opti-MEM I medium, and added to KOP2.16 cells in a 35 mm dish, which had been washed with Opti-MEM I medium. After 4 hours, 20% FBS-containing Opti-MEM I medium (1.0 ml) was added to the dish. After 48 hours, siRNA-transfected cells were collected and counted, and then suspended in Opti-MEM I medium and seeded again on Matrigel. After 18 to 48 hours, tube formation in the cells was observed. As negative controls, PBS (“None” in FIG. 15) and Stealth RNA Negative Control Medium GC Duplex (Invitrogen) (“siRNA-MNC” in FIG. 15) were used.

The subject of series [7] is B16 cells. The experiment in a line: in vivo anti-tumor growth effect of siRNA#3, B16 tumor in nude mice. The note with it: siRNA#3/atelocollagen mixture injected near the tumor, three times at intervals of a week. Set-up: species or system mouse. How it is done: B 16 cells were inoculated subcutaneously into nude mice. After about a week when tumor reached about 5 mm diameter (about […]), an siRNA#3/atelocollagen mixture (0.2 ml) was injected near the tumor. Subsequently, the same siRNA#3/atelocollagen mixture was further injected twice near the tumor at intervals of a week.

Series [8] deals with GEF-1 (Hrs/Hgs). Put plainly: GEF-1 (Hgs) expression level by Western blotting in shRNA-expressing B16 cells. Type of series: cell-based, mouse. The note with it: B16 cells stably expressing the shRNA. How it is done:
(§4) The respective shRNA expression vectors prepared in i) above were each introduced into B16 cells by gene transfer and subjected to drug selection using G418 drug (1 mg/ml). B16 cells expressing the respective shRNAs (B16/shRNA-74 cells, B16/shRNA-157 cells and B16/shRNA-207 cells) were finally obtained by cloning. These cells were confirmed for their GEF-1 expression levels by Western blotting and also examined for their ability of cell migration using a Boyden chamber.

Series [9] has as its system B16 cells. Put plainly: cell migration ability of shRNA-expressing B16 cells, Boyden chamber. Type of series: cell-based, mouse. Conditions: B16 cells stably expressing the shRNA. How it is done: as §4
The test system of series [10] is COLO205 cells. Put plainly: in vivo anti-tumor growth effect of r9-OP10-11 on established COLO205 tumor in nude mice. Further details: species or system human. The note with it: tumor already formed; 35 nmol in PBS around the tumor, four weekly administrations. The method, then:
1.0×10^6 COLO205 cells were inoculated subcutaneously into nude mice to prepare tumor of COLO205 cells. At 10 days after inoculation, a solution of r9-OP10-11 (35 nmol)/PBS was administered in a volume of 0.1 ml around the tumor whose diameter reached 5 to 6 mm (about 100 mm^3) At 7, 14 and 21 days after this administration, the same administration was repeated. The long and short axes of tumor were measured to calculate the tumor volume (=long axis×(short axis)^2×π/6). After the mice were finally euthanized with carbon dioxide gas, tumor in each mouse was photographed. Subsequently, the tumor was excised and measured for its wet weight.

Results on eight substances are retold here after patent US20130190240A1, “TUMOR GROWTH CONTROLLING METHOD TARGETING GALACTOSYLCERAMIDE EXPRESSION FACTOR-1” (priority 2010, published 2013).

Square brackets hold non-standard residues; d marks the D form. Ends that are not written are not given here. Some results are limits rather than exact numbers.

Take “OP10-11: GEF-1/C constituent oligopeptide EYLEVQRQLA (SEQ ID NO: 64)”: the “inhibition of SMAD transcriptional activity” value in series [1] is recorded as “about 50%”. For the same substance, the “inhibition of growth ability in soft agar medium” value is listed as “about 60%” in series [2], “about 20%” in [3] and “about 50%” in series [4]. Also, the “inhibition of B16 cell tumor growth” value in [5] is recorded as at least 50%.
Regarding “OP10-7: GEF-1/C constituent oligopeptide ALSALREEHR (SEQ ID NO: 60)”, the “inhibition of SMAD transcriptional activity” value in series [1] is listed as “about 50%”.
In the case of “OP10-10: GEF-1/C constituent oligopeptide KLEIMRQKKQ (SEQ ID NO: 63)”, the “inhibition of growth ability in soft agar medium” value in series [4] is “about 50%”.
As for “siRNA#3: stealth RNAi against mouse Hgs; sense 5′-UAGAAUGGACUCCCAGUCUGACUCC (SEQ ID NO: 34, 35) (antisense GGAGUCAGACUGGGAGUCCAUUCUA; listed as RNA, chemistry not given here)”, in [6], the “inhibitory effect on tube formation” value is on record as “significant inhibitory effect”. Besides, in series [7], the “tumor volume as compared to PBS or siRNA#3-scramble” value is at most 50% and the “tumor weight as compared to PBS or siRNA#3-scramble” value was at most 50%.
On to “shRNA-157: shRNA against mouse GEF-1 (Hrs/Hgs) gene, Hgs157 template SEQ ID NO: 26; B16/shRNA-157 cells used as B16/shRNA cells (DNA CCGTTAATGATAAGAACCCACTTCAAGAGAGTGGGTTCTTATCATTAACTTTTTA)”, for which the “inhibition of Hgs expression” value in [8] was 95%. Further, in series [9], the “inhibition of cell migration ability” value is 95%.
Regarding “OP10-12: GEF-1/C constituent oligopeptide IQRLQEQEKE (SEQ ID NO: 65)”, the “inhibition of SMAD transcriptional activity” value in series [1] is “about 50%”.
“r9-OP10-11: OP10-11 linked to a cell membrane permeable peptide, rrrrrrrrrGPGEYLEVQRQLA (r = D-arginine) (SEQ ID NO: 67) ([dR][dR][dR][dR][dR][dR][dR][dR][dR]GPGEYLEVQRQLA)”: in [10], the “inhibition of growth of COLO205 cell tumor in tumor volume” value is “about 65%” and the “inhibition of growth of COLO205 cell tumor in tumor weight” value is on record as “about 60%”.
As to “siRNA#2: stealth RNAi against mouse Hgs; sense 5′-GGACGAUACUCGUCGACUUGUUCUU (SEQ ID NO: 32, 33) (antisense AAGAACAAGUCGACGAGUAUCGUCC; listed as RNA, chemistry not given here)”, the “inhibitory effect on tube formation” value in [6] is listed as “significant inhibitory effect”.
